According to patent publication EP4768485A1 (Guangzhou Baiyunshan Pharmaceutical Holdings Co., Ltd. …, priority 2023, dated 2025):
Values after ≈ are worked out from the molar mass of the structure shown. Read-outs that look alike come from different tables or passages of the source. Values belong to the compound of their own block, whether it stands above or below them.

What was measured:
EcFabI = EcFabI (Escherichia coli, UniProt P0AEK4); assay: FabI enzymatic activity by NADH/NADPH oxidation (fluorescence), EcFabI; type: biochemical; details: 9 nmol/L EcFabI; trans-dodecenoyl-CoA and NADH; pH 6.5
Protocol: (§3) In this test example, the enzymatic activity was evaluated by monitoring the oxidation of cofactor NADH/NADPH using a microplate reader.
(§4) The compound was dissolved in DMSO and added to a 384-well plate using ECHO665. Serial 3-fold or 4-fold dilutions were prepared to generate 10 dose points with two replicates per concentration, ensuring a final DMSO concentration 1% in each reaction well. Then, a FabI protein solution was added, and the protein was prepared in a buffer containing 100 mmol/L PBS, 0.05% Tween-20, and 150 mmol/L NaCl (pH 6.5), so that the final concentrations of SaFabI and EcFabI proteins were 15 nmol/L and 9 nmol/L, respectively. The prepared 5 µL of 15 nmol/L SaFabI and 9 nmol/L EcFabI were added to a 384-well assay plate, and centrifuged at 1000 rpm for 1 minute. Then, the plate was pre-incubated in a temperature-controlled shaker at 30 °C for 20 minutes. Moreover, substrates trans-octenoyl-CoA, NADPH, trans-dodecenoyl-CoA, and NADH were diluted in a buffer containing 100 mmol/L PBS, 0.05% Tween-20, and 15 0 mmol/L NaCl (pH 6.5) respectively, and their concentrations were adjusted to 300 µmol/L, 300 µmol/L, 600 µmol/L, and 150 µmol/L, respectively. For SaFabI, 5 µL of 300 µmol/L trans-octenoyl-CoA and 5 µL of 300 µmol/L NADPH were added to initiate the reaction. Immediately after initiation, the plate was placed into the microplate reader, and fluorescence signals (Ex 340 nm/Em 460 nm) were recorded every 0.5 minutes for at least 10 minutes. Similarly, 5 µL of 600 µmol/L trans-dodecenoyl-CoA and 5 µL of 150 µmol/L NADH were added to initiate reaction of EcFabI. Immediately after initiation, the plate was immediately placed into the microplate reader, and fluorescence signals (Ex 340 nm/Em 460 nm) were recorded every 0.5 minutes for at least 10 minutes. The reaction rate (fluorescence signal per minute) of each well was calculated from the fluorescence values. The inhibitory effect of the compound on the protein was then calculated based on the reaction rate, and the IC50 value for inhibition of enzyme activity by the compound was determined by fitting the data using GraphPad Prism 6 with log (inhibitor) vs. response variable slope model. The fitting equation is: Y=Bottom + (Top-Bottom)/(1+10^((LogIC50-X)*HillSlope)), wherein Y represents the known percentage of residual enzyme activity, and X represents the known Log concentration of the compound.

MRSA NRS 384 = assay: MIC, agar plate two-fold dilution; type: cell-based, Staphylococcus aureus; details: MHA, 37°C, 16-20 hours; for MIC: Staphylococcus aureus
Protocol: (§1) In this test example, the minimum inhibitory concentration (MIC) of the compound was determined.
(§2) The test drug concentration was set to be within a range of 0.008 µg/mL to 128 µg/mL in a two-fold serial dilution using an agar plate two-fold dilution method. The sample was dissolved in DMSO to prepare a 2 mL solution with a concentration of 1.92 mg/mL. The control group was prepared in sterile distilled water to obtain a concentration of 1.92 mg/mL. 1 mL of the prepared drug solution was added to a sterile culture dish, followed by addition of 14 mL of MHA culture medium at approximately 60°C. After thorough mixing, 1 mL of sterilized distilled water was added for two-fold dilution, resulting in a final drug concentration of 64 µg/mL, 32 µg/mL, 16 µg/mL, 8 µg/mL, 4 µg/mL, 2 µg/mL, 1 µg/mL, 0.5 µg/mL, 0.25 µg/mL, 0.125 µg/mL, 0.06 µg/mL, 0.03 µg/mL, 0.015 µg/mL, and 0.008 µg/mL (wherein the final concentrations of samples 2, 4, and 9 were diluted downward starting from 128 µg/mL), and set aside for later use. The prepared bacterial suspension was inoculated onto drug-containing MHA culture medium with a multi-point inoculator, with an inoculation volume of approximately 10^4 CFU per point. A sterile control group (1 mL DMSO + 14 mL MHA culture medium and 1 mL sterile distilled water + 14 mL MHA culture medium) was set up.

MSSA ATCC 29213 = assay: MIC, agar plate two-fold dilution; type: cell-based, Staphylococcus aureus; details: MHA, 37°C, 16-20 hours; for MIC: Staphylococcus aureus
Protocol: as §1, §2

VRSA VRS 1 = assay: MIC, agar plate two-fold dilution; type: cell-based, Staphylococcus aureus; details: MHA, 37°C, 16-20 hours; for MIC: Staphylococcus aureus
Protocol: as §1, §2

[1] = system: Acinetobacter baumannii ARLG 1852; assay: MIC, agar plate two-fold dilution; type: cell-based
Protocol: as §1, §2

[2] = system: Escherichia coli. ATCC 25923; assay: MIC, agar plate two-fold dilution; type: cell-based; details: MHA, 37°C, 16-20 hours
Protocol: as §1, §2

[3] = system: Klebsiella pneumoniae ATCC BAA 2472; assay: MIC, agar plate two-fold dilution; type: cell-based
Protocol: as §1, §2

SaFabI = SaFabI (Staphylococcus aureus, UniProt Q6GI75); assay: FabI enzymatic activity by NADH/NADPH oxidation (fluorescence), SaFabI; details: SaFabI IC50, 15 nmol/L SaFabI; trans-octenoyl-CoA and NADPH; pH 6.5
Protocol: as §3, §4

[4] = Pharmacokinetic study in rats; type: in vivo, Sprague-Dawley (SD) rats; details: oral gavage
Protocol: In this test experiment, a pharmacokinetic study of the compound in rats was conducted.
Twelve healthy adult female Sprague-Dawley (SD) rats (purchased from Beijing Vital River Laboratory Animal Technology Co., Ltd., China) with an average body weight of about 180-220 g were selected, and divided into four groups (n=3 per group). Two groups were administered via tail vein injection, while the other two groups were administered via oral gavage. Compound 1b was dissolved in a vehicle containing 5% DMSO, 30% PEG400, and 65% H2O, and Debio-1450 was dissolved in physiological saline, both of which were formed into a stable clear solution for later use. Animals were fasted for 12 hours before administration and resumed normal feeding 2 hours post administration. Then, blood samples were collected through the jugular vein at the following time points: 0.083 h, 0.25 h, 0.5 h, 1 h, 2 h, 4 h, 8 h, 24 h (tail vein injection) and 0.25 h, 0.5 h, 1 h, 2 h, 4 h, 8 h, 24 h (oral gavage administration), respectively, with a blood collection volume of about 200-400 µL. Whole blood collected at each time point was immediately transferred into an anticoagulant tube containing K2EDTA, then stored on ice in an insulated container. All samples were centrifuged within 15 minutes at 4600 r/min and 4°C for 5 minutes to separate plasma. The concentration of the compound in the plasma of each rat was determined using LC-MS/MS method, and the pharmacokinetic parameter was calculated from the drug concentration-time profile. Table 4 Oral Pharmacokinetic Parameters of Compound 1b/Debio-1450 In Rats

Escherichia coli. = assay: MIC, agar plate two-fold dilution; type: cell-based; details: ATCC25923; Escherichia coli. ATCC 25923; MHA, 37°C, 16-20 hours; read-out: Minimum Inhibitory Concentration MIC
Protocol: as §1, §2

[5] = female, Sprague-Dawley, rat, 10 mg/Kg, plasma

Chain of EcFabI (P0AEK4 whole entry): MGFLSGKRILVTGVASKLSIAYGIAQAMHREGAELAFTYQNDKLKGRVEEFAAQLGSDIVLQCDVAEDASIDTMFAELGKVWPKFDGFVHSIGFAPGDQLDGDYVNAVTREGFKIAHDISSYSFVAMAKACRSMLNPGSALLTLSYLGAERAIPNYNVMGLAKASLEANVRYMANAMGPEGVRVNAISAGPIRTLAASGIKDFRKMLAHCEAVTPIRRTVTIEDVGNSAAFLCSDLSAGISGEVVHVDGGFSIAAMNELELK

Compound: Cc1c(CN(C)C(=O)/C=C/c2cnc3c(c2)C2CC2(N)C(=O)N3)oc2ccccc12 (centres unmarked) [Compound 3a]
IC50 (EcFabI): 7 nM
MIC (MRSA NRS 384; MRSA|NRS384, read-out: Minimum Inhibitory Concentration MIC, MRSA NRS 384): 0.03 µg/mL (≈ 0.0745 µM)
MIC (MSSA ATCC 29213; ATCC29213|MSSA, read-out: Minimum Inhibitory Concentration MIC, MSSA ATCC 29213): 0.03 µg/mL (≈ 0.0745 µM)
MIC (VRSA VRS 1; VRSA, read-out: Minimum Inhibitory Concentration MIC, VRSA VRS 1): 0.5 µg/mL (≈ 1.24 µM)
MIC ([1]; Acinetobacter baumannii, ARLG1852, read-out: Minimum Inhibitory Concentration MIC): > 32 µg/mL
MIC ([2]; Escherichia coli, ATCC25923, read-out: Minimum Inhibitory Concentration MIC, Escherichia coli. ATCC 25923): 8 µg/mL (≈ 19.9 µM)
MIC ([3]; Klebsiella pneumoniae, BAA2472, read-out: Minimum Inhibitory Concentration MIC): > 32 µg/mL
IC50 (SaFabI): 10 nM

Compound: Cc1c(CN(C)C(=O)/C=C/c2cnc3c(c2)C2CC2(N)C(=O)N3)oc2ccccc12 (centres unmarked) [Compound 3b]
Minimum Inhibitory Concentration MIC (MRSA NRS 384; MRSA NRS 384): 0.016 µg/mL
Minimum Inhibitory Concentration MIC (MSSA ATCC 29213; MSSA ATCC 29213): 0.016 µg/mL
Minimum Inhibitory Concentration MIC (VRSA VRS 1; VRSA VRS 1): 0.25 µg/mL
Minimum Inhibitory Concentration MIC ([1]; Acinetobacter baumannii ARLG 1852, MHA, 37°C, 16-20 hours): >32 µg/mL
Minimum Inhibitory Concentration MIC ([2]; Escherichia coli. ATCC 25923): 8 µg/mL
Minimum Inhibitory Concentration MIC ([3]; Klebsiella pneumoniae ATCC BAA 2472, MHA, 37°C, 16-20 hours): >32 µg/mL

Cmax [4, 5]: 2210 ng/mL
Tmax [4, 5]: 0.67 h
half-life [4, 5]: 4.2 h
F ([4]; 10 mg/Kg vs tail vein injection): 97%
Compound: Cc1c(CN(C)C(=O)/C=C/c2cnc3c(c2)CCC(=O)N3COP(=O)(O)O)oc2ccccc12 [Debio-1450]

Compound: Cc1c(CN(C)C(=O)/C=C/c2cnc3c(c2)CCC(=O)N3)oc2ccccc12 [Debio-1452, reference compound]
IC50 (EcFabI): 3 nM
MIC (MRSA NRS 384; MRSA NRS 384, read-out: Minimum Inhibitory Concentration MIC): < 0.008 µg/mL
MIC (MSSA ATCC 29213; MSSA ATCC 29213, read-out: Minimum Inhibitory Concentration MIC): < 0.008 µg/mL
MIC (VRSA VRS 1; VRSA VRS 1, read-out: Minimum Inhibitory Concentration MIC): 0.12 µg/mL (≈ 0.32 µM)
MIC ([1]; ARLG1852, Acinetobacter baumannii ARLG 1852, MHA, 37°C, 16-20 hours, read-out: Minimum Inhibitory Concentration MIC): > 8 µg/mL
MIC (Escherichia coli.): 4 µg/mL (≈ 10.7 µM)
MIC ([3]; BAA2472, Klebsiella pneumoniae ATCC BAA 2472, MHA, 37°C, 16-20 hours, read-out: Minimum Inhibitory Concentration MIC): > 8 µg/mL
IC50 (SaFabI): 2 nM
